In data set [1] the target is T1, ABCG2 (Rattus norvegicus, UniProt Q80W57).
T1 sequence (Q80W57 1-657): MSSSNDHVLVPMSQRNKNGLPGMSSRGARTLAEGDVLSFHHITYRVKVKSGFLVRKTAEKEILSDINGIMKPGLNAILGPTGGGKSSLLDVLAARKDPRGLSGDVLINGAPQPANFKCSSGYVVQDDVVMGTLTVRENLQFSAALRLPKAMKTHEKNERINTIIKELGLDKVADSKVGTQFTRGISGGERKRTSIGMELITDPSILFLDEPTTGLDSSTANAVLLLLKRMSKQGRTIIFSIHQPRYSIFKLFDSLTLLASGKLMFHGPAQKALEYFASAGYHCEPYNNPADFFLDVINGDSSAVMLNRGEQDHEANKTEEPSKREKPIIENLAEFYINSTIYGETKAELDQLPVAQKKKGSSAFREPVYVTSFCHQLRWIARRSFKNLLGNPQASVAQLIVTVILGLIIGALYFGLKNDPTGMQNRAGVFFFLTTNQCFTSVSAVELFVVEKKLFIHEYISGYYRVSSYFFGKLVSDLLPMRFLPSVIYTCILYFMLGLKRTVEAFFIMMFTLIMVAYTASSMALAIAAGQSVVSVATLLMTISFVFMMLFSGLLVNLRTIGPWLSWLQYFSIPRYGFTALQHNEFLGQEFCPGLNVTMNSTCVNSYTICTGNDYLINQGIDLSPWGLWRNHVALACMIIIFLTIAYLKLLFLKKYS
The data set is described as follows: Bodipy FL prazosin transport assay in isolated rat brain capillaries. Format: cell-based. The conditions noted are these: for IC50: rat brain capillaries.

Data set [2] has as its target T2, mouse ABCG2 (Mus musculus, UniProt Q7TMS5).
T2 sequence (Q7TMS5 1-657): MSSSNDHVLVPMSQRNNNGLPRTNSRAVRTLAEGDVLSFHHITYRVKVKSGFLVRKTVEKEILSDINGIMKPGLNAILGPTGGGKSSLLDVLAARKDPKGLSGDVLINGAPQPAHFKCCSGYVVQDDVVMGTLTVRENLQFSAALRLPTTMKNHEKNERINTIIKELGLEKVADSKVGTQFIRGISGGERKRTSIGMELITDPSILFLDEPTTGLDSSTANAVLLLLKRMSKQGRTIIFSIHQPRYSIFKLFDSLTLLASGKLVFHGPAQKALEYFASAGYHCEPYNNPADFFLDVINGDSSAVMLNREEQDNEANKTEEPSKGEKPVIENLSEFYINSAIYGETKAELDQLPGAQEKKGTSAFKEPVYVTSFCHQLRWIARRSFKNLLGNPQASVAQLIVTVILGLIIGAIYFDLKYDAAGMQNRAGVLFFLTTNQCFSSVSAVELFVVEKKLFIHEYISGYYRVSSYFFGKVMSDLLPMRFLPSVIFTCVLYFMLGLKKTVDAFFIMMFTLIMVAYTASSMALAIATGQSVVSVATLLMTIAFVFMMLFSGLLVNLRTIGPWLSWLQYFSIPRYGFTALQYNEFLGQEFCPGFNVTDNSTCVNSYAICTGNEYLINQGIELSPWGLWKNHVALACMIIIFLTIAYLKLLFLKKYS
The data set is classed as in vivo, mice.

Data set [3] deals with mouse ABCG2. The data set is classed as in vivo, mice.
The conditions of data set [4]: clinical trials in humans; cited from earlier work.
Data set [5] has as its system pancreatic cancer. The conditions noted are these: oral administration of 8 g curcumin daily up to 18 months; cited from earlier work.
The target of data set [6] is T3, human ABCG2 (Homo sapiens, UniProt Q9UNQ0).
T3 sequence (Q9UNQ0 1-655): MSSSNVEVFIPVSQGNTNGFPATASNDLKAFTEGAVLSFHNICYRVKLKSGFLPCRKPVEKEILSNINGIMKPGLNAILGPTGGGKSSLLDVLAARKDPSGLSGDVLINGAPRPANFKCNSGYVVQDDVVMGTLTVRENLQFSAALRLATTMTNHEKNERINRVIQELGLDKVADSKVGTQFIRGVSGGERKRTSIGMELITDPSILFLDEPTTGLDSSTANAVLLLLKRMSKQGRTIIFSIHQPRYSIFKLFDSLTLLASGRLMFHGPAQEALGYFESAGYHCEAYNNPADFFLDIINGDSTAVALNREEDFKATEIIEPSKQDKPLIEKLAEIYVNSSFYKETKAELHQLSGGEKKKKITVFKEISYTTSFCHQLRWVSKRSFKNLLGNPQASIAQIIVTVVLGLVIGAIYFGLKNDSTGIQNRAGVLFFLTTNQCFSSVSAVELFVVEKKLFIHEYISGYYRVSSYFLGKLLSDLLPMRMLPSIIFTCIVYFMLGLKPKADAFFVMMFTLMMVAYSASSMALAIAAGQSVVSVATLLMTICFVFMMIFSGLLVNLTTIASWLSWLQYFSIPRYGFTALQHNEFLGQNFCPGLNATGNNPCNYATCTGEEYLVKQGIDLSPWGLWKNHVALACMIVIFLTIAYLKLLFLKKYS
The data set is classed as binding.

The subject of data set [7] is mouse ABCG2. The data set is classed as in vivo, mice. The conditions noted are these: FVB, mouse, plasma, oral, 20 mg/kg.
Data set [8] concerns MCF-7 cells. The conditions noted are these: read-out: IC50 for MCF-7 cells; cited from earlier work.

Broadly, the IC50 is the midpoint of a concentration-inhibition curve. In general, half-life refers to the time needed for the level to fall by half in the phase considered. Low values mean rapid decline, high ones slow decline. In general, Cmax refers to the peak of the concentration-time curve.

The structures appear in SMILES notation. Where “and” joins values, the source holds several entries; their conditions need not be identical. Equal entries are not always repeated. Entries after “also recorded” stand apart in the source; their conditions may differ. Where two headings read alike, the source gives them in different places.

As to `COc1cc(/C=C/C(=O)CC(=O)/C=C/c2ccc(O)c(OC)c2)ccc1O` [curcumin, Diferuoyl methane], the half-inhibitory concentration (IC50) turned out to be 19 nM in data set [1] (IC50, inhibition of ABCG2-mediated efflux of BODIPY FL prazosin, ex vivo) and 19.4 nM in data set [1] (IC50, inhibition of ABCG2 activity (luminal BODIPY FL prazosin fluorescence), 2 μM BODIPY FL prazosin, 1 h, room temperature). Further, the “effect of curcumin pretreatment on plasma concentration of SASP” value in data set [2] (curcumin 40 mg/kg PO 1 h before SASP 20 mg/kg PO, FVB-WT mice, data not shown) is “no effect”. In addition, the “effect of curcumin on the levels of SASP” value in data set [3] (abcg2-/- mice, curcumin 400 mg/kg PO, 90 min after SASP 20 mg/kg PO) was “no significant effect; also recorded: no significant increase”. Moreover, the “systemic bioavailability of orally administered curcumin” value in data set [4] was “relatively low”. In addition, the “progression of pancreatic cancer” value in data set [5] was “inhibited progression”.

For the compound `COc1ccc2c3c([nH]c2c1)[C@H](C=C(C)C)N1C(=O)[C@@H]2CCCN2C(=O)[C@@H]1C3` [FTC, fumitremorgin C], the “inhibition of the efflux of Bodipy-prazosin in brain capillaries” value in data set [1] turned out to be 50%. In addition, in data set [1] (5 μM inhibitor, steady state), the “luminal BODIPY FL prazosin fluorescence, % of control capillaries” value was “approximately 50%”.

In data set [6], `O=C(O)c1cc(/N=N/c2ccc(S(=O)(=O)Nc3ccccn3)cc2)ccc1O` [SASP, Sulfasalazine] had an IC50 of 1020 nM. For the same compound, the half-life is 5.02 h in data set [2] (FVB, mouse, plasma, po) and 1.08 h in data set [2] (FVB, mouse, plasma, po, 20 mg/kg). The Cmax in data set [2] (FVB, mouse, plasma, po, 20 mg/kg, Cmax of SASP, SASP 20 mg/kg PO, vehicle pretreatment, wild-type mice) was 1230 ng/mL. For the same compound, the concentration at 24 h in data set [7] is < 1 ng/mL. In addition, the “SASP plasma level in abcg2-/- mice relative to abcb1a-/- and wild-type groups” value in data set [3] (90 min after SASP 20 mg/kg PO) is given as 10-20 fold. For the same compound, the concentration at 90 min in data set [3] (FVB, mouse, plasma, oral, 20 mg/kg) was ~540 ng/mL and 12400 ng/mL.

As to `COc1cc2c(cc1OC)CN(CCc1ccc(NC(=O)c3cccc4c(=O)c5cccc(OC)c5[nH]c34)cc1)CC2` [GF120918], in data set [8], the half-maximal inhibitory concentration (IC50) is 18000 nM.

With `COc1ccc2c3c([nH]c2c1)[C@H](CC(C)C)N1C(=O)[C@H](CCC(=O)OC(C)(C)C)NC(=O)[C@@H]1C3` [Ko143], in data set [8], the half-maximal inhibitory concentration (IC50) is 19000 nM.

(Values after article PMC2662629 (Pharmaceutical research, 2008).)
